{"source": "patent US9708305B2", "about": "“Substituted 1,2,3,4-tetrahydroisoquinoline derivatives for the treatment of hormone-dependent diseases” (UNIVERSITÉ LAVAL, priority 2013, dated 2017)", "key": {"T-47D cells": {"system": "T-47D cells", "assay": "T-47D cell proliferation (estrogenicity / cytotoxicity), MTS", "type": "cell-based", "conditions": "Homo sapiens, T47D, control cells set to 100%, mean±SD", "procedure": "The library of phenolic compounds described above was tested on estrogen-sensitive breast cancer T-47D cells.\nIn Table 1, cell proliferation of control cells is set to 100%. Results are expressed as mean±SD of one experiment in triplicate.\nCellTitter 96® Aqueous One Solution Cell Proliferation Assay was used as an indirect colorimetric measurement of cell proliferation according to the manufacturer's instructions. Briefly, after the treatments, 20 μL of MTS solution was added to each well (100 μL) of the plates and incubated at 37° C. for 2 h (Saos-2) or 4 h (T-47D). The absorbance at 490 nm was then measured with a Thermo max microplate reader (Molecular Devices, Sunnyvale, Calif.). The control (culture media+DMSO) is set to 100% of cell proliferation.\nThe cells were plated in 96-well plates at a density of 3 000 cells/well and allowed to attach for 48 h. After this pre-incubation, the inhibitors and the reference compounds diluted in fresh culture media were added to the wells and replaced every 2 days for 7 days of treatment."}, "STS": {"biological_target": "T1, STS (Homo sapiens, UniProt P08842)", "T1 construct": "expressed in transfected cells; host or cells: HEK-293 cells stably transfected with STS (G418 selection), obtained from Dr. Van Luu-The; used as freeze-thaw homogenate", "T1 sequence (P08842 22-583)": "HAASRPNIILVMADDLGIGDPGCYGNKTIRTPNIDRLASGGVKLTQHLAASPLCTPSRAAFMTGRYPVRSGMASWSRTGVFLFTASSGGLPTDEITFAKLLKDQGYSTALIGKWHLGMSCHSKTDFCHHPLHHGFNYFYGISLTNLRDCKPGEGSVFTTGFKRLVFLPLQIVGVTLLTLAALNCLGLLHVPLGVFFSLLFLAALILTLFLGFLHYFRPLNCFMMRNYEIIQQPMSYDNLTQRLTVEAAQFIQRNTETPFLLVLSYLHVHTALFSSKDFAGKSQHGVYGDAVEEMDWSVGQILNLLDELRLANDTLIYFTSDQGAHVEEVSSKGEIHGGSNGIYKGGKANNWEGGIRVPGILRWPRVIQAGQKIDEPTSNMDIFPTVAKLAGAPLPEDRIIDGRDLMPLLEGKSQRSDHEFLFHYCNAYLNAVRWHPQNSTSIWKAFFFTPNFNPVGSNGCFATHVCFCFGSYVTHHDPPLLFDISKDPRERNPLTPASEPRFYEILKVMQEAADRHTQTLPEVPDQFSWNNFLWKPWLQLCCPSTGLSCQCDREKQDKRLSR", "assay": "STS inhibition of libraries 1-EO to 4-EO, homogenate of STS transfected HEK-293 cells", "type": "biochemical", "conditions": "mean ± SEM, triplicate", "procedure": "The enzymatic assay was performed using homogenate of STS transfected HEK-293 cells as the source of enzyme activity. The transformation of [^3H]-E1S into [^3H]-E1 was measured using scintillation counting of labeled E1S and E1 in the aqueous and organic phases, respectively. Newly synthesized sulfamate compounds were tested at two concentrations (0.1 μM and 1 μM). Libraries 1-EO and 2-EO were synthesized using the p- and m-benzamide spacers as 1st level of molecular diversity and the same wide variety of secondary amines as 2nd level of diversity (Table 2), which were chosen in a somewhat random fashion while including a different pattern, format and heteroatom. […] Compounds 1-EO-07, 1-EO-09 and 1-EO-10 represent a starting point for optimization, as they show more than 36% of inhibition when tested at a concentration of 0.1 μM. These compounds have relatively hydrophobic substituents compared to the rest of the library members. […] The average log P value for the rest of the library, excluding these three compounds, is 1.93.\nThis enzymatic assay was carried out according to a procedure previously described for the transformation of substrate [^3H]-E1S (100 μM) into [^3H]-E1 by homogenated HEK-293 cells over-expressing the enzyme activity.^56,73"}}}
{"smiles": "O=C(c1ccc(CN(Cc2ccc(Br)cc2)Cc2ccco2)cc1)N1CCc2ccc(O)cc2C1", "note": "[Compound 26, (4-{[(4-bromobenzyl)(furan-2-ylmethyl)amino]methyl}phenyl)(7-hydroxy-3,4-dihydroisoquinolin-2(1H)-yl)methanone]", "values": [{"measurement": "activity at 0.01 µM", "setting": "T-47D cells", "result": "106.3 ± 0.6", "unit": "%"}, {"measurement": "activity at 0.1 µM", "setting": "T-47D cells", "result": "109 ± 1.2", "unit": "%"}, {"measurement": "activity at 1 µM", "setting": "T-47D cells", "result": "59.2 ± 3.1", "unit": "%"}]}
{"smiles": "O=C(c1ccc(CN(Cc2ccco2)Cc2ccccc2OCCCN2CCCCC2)cc1)N1CCc2ccc(O)cc2C1", "note": "[Compound 21]", "values": [{"measurement": "activity at 0.01 µM", "setting": "T-47D cells", "result": "96.8 ± 1.2", "unit": "%"}, {"measurement": "activity at 0.1 µM", "setting": "T-47D cells", "result": "106 ± 5.6", "unit": "%"}, {"measurement": "activity at 1 µM", "setting": "T-47D cells", "result": 0, "unit": "%"}]}
{"smiles": "O=C(c1ccc(CN(Cc2ccc(OCCCN3CCCCC3)cc2)Cc2ccccn2)cc1)N1CCc2ccc(O)cc2C1", "note": "[Compound 20, (7-hydroxy-3,4-dihydroisoquinolin-2(1H)-yl)(4-{[{4-[3-(piperidin-1-yl)propoxy]benzyl}(pyridin-2-ylmethyl)amino]methyl}phenyl)methanone]", "values": [{"measurement": "activity at 0.01 µM", "setting": "T-47D cells", "result": "105.9 ± 1", "unit": "%"}, {"measurement": "activity at 0.1 µM", "setting": "T-47D cells", "result": "104 ± 4.8", "unit": "%"}, {"measurement": "activity at 1 µM", "setting": "T-47D cells", "result": "60.7 ± 6.4", "unit": "%"}]}
{"smiles": "O=C(c1ccc(CN(Cc2ccc(OCCCN3CCCCC3)cc2)Cc2ccco2)cc1)N1CCc2ccc(O)cc2C1", "note": "[Compound 22, (4-{[(furan-2-ylmethyl){4-[3-(piperidin-1-yl)propoxy]benzyl}amino]methyl}phenyl)(7-hydroxy-3,4-dihydroisoquinolin-2(1H)-yl)methanone]", "values": [{"measurement": "activity at 0.01 µM", "setting": "T-47D cells", "result": "95.6 ± 1.8", "unit": "%"}, {"measurement": "activity at 0.1 µM", "setting": "T-47D cells", "result": "120 ± 4.8", "unit": "%"}, {"measurement": "activity at 1 µM", "setting": "T-47D cells", "result": "134 ± 3", "unit": "%"}]}
{"smiles": "O=C(c1ccc(CN(Cc2ccc(O)cc2)Cc2ccco2)cc1)N1CCc2ccc(O)cc2C1", "note": "[Compound 30, (4-{[(furan-2-ylmethyl)(4-hydroxybenzyl)amino]methyl}phenyl)(7-hydroxy-3,4-dihydroisoquinolin-2(1H)-yl)methanone]", "values": [{"measurement": "activity at 0.01 µM", "setting": "T-47D cells", "result": "108 ± 5.5", "unit": "%"}, {"measurement": "activity at 0.1 µM", "setting": "T-47D cells", "result": "138 ± 1.2", "unit": "%"}, {"measurement": "activity at 1 µM", "setting": "T-47D cells", "result": "200 ± 4.9", "unit": "%"}]}
{"smiles": "O=C(c1ccc(CN(CCCn2ccnc2)Cc2ccccn2)cc1)N1CCc2ccc(O)cc2C1", "note": "[Compound 23, (7-hydroxy-3,4-dihydroisoquinolin-2(1H)-yl)[4-({[3-(1H-imidazol-1-yl)propyl](pyridin-2-ylmethyl)amino}methyl)phenyl]methanone]", "values": [{"measurement": "activity at 0.01 µM", "setting": "T-47D cells", "result": "103 ± 2.2", "unit": "%"}, {"measurement": "activity at 0.1 µM", "setting": "T-47D cells", "result": "113 ± 3.7", "unit": "%"}, {"measurement": "activity at 1 µM", "setting": "T-47D cells", "result": "39.2 ± 2.9", "unit": "%"}]}
{"smiles": "NS(=O)(=O)Oc1ccc2c(c1)CN(C(=O)c1ccc(CN3CCc4ccccc4C3)cc1)CC2", "note": "[3-EO-10]", "values": [{"measurement": "STS inhibition (%)", "setting": "STS; 0.1 μM", "result": "56.0 ± 7.2", "unit": "%"}, {"measurement": "STS inhibition (%)", "setting": "STS; 1 μM", "result": "83.0 ± 11.9", "unit": "%"}]}
{"smiles": "NS(=O)(=O)Oc1ccc2c(c1)CN(C(=O)c1cccc(CN3CCSCC3)c1)CC2", "note": "[2-EO-03]", "values": [{"measurement": "STS inhibition (%)", "setting": "STS; 0.1 μM", "result": "2.3 ± 0.1", "unit": "%"}, {"measurement": "STS inhibition (%)", "setting": "STS; 1 μM", "result": "39.6 ± 2.8", "unit": "%"}]}
{"smiles": "NS(=O)(=O)Oc1ccc2c(c1)CN(C(=O)c1cccc(CN(Cc3ccccc3)Cc3ccco3)c1)CC2", "note": "[4-EO-11]", "values": [{"measurement": "STS inhibition (%)", "setting": "STS; 0.1 μM", "result": "27.5 ± 0.9", "unit": "%"}]}
{"smiles": "NS(=O)(=O)Oc1ccc2c(c1)CN(C(=O)c1cccc(CN(CCCO)Cc3ccccc3)c1)CC2", "note": "[4-EO-03]", "values": [{"measurement": "STS inhibition (%)", "setting": "STS; 0.1 μM", "result": "25.8 ± 3.9", "unit": "%"}, {"measurement": "STS inhibition (%)", "setting": "STS; 1 μM", "result": "37.3 ± 7.0", "unit": "%"}]}
{"smiles": "CCN(Cc1ccc(F)cc1)Cc1ccc(C(=O)N2CCc3ccc(OS(N)(=O)=O)cc3C2)cc1", "note": "[3-EO-17]", "values": [{"measurement": "STS inhibition (%)", "setting": "STS; 0.1 μM", "result": "69.1 ± 1.9", "unit": "%"}, {"measurement": "STS inhibition (%)", "setting": "STS; 1 μM", "result": "91.2 ± 2.7", "unit": "%"}]}
{"smiles": "CCN(Cc1cccc(C(=O)N2CCc3ccc(OS(N)(=O)=O)cc3C2)c1)Cc1ccccn1", "note": "[4-EO-14]", "values": [{"measurement": "STS inhibition (%)", "setting": "STS; 0.1 μM", "result": "6.5 ± 6.9", "unit": "%"}, {"measurement": "STS inhibition (%)", "setting": "STS; 1 μM", "result": "19.9 ± 12.6", "unit": "%"}]}
{"smiles": "CCN(Cc1ccccc1)Cc1ccc(CN2CCc3ccc(OS(N)(=O)=O)cc3C2)cc1", "note": "[Compound 11]", "values": [{"measurement": "inhibition at 0.1 µM", "setting": "STS; 0.1 μM", "result": 1, "unit": "%"}, {"measurement": "inhibition at 1 µM", "setting": "STS; 1 μM", "result": 17, "unit": "%"}]}
{"smiles": "NS(=O)(=O)Oc1ccc2c(c1)CN(C(=O)c1cccc(CN3CCOCC3)c1)CC2", "note": "[2-EO-01]", "values": [{"measurement": "STS inhibition (%)", "setting": "STS; 0.1 μM", "result": "0.0 ± 4.7", "unit": "%"}, {"measurement": "STS inhibition (%)", "setting": "STS; 1 μM", "result": "20.9 ± 4.4", "unit": "%"}]}
{"smiles": "CCCN(CCC)Cc1ccc(C(=O)N2CCc3ccc(OS(N)(=O)=O)cc3C2)cc1", "note": "[1-EO-10]", "values": [{"measurement": "STS inhibition (%)", "setting": "STS; 1 μM", "result": "84.7 ± 0.2", "unit": "%"}]}
{"smiles": "NS(=O)(=O)Oc1ccc2c(c1)CN(C(=O)c1ccc(CN(CCCO)Cc3ccccc3)cc1)CC2", "note": "[3-EO-03]", "values": [{"measurement": "STS inhibition (%)", "setting": "STS; 0.1 μM", "result": "5.7 ± 4.4", "unit": "%"}, {"measurement": "STS inhibition (%)", "setting": "STS; 1 μM", "result": "64.3 ± 1.6", "unit": "%"}]}
